Measurements taken from US20050008751A1, “Fermented milk product” (Unilever Bestfoods, North America, priority 2001, published 2005).

Tested on: ACE
Assay: ACE inhibition (IC50) of synthesized peptides
Format: biochemical
Protocol: The ACE inhibition activity was assayed according to the method 15 of Matsui et al. (Matsui, T. et al. (1992) Biosci. Biotech. Biochem. 56: 517-518) with the modifications described below.
For each sample 75 μl 3 mM hippuryl histidine leucine (Hip-His-Leu, Sigma chemicals Co.; the chemical was dissolved in 250 mM Borate containing 200 mM NaCl, pH 8.3); 20 μl 0.1 U/ml ACE (obtained at Sigma) or H2 O, and 25 μl sample or H2O were mixed (see Table 1). The mixtures were incubated at 37° C. and stopped after 30 min by adding 125 μl 0.5 M HCl. Subsequently, 225 μl bicine/NaOH solution (1 M NaOH : 0.25 M bicine (4:6)) was added, followed by […] 0.1 M TNBS (2,4,6-Trinitrobenzenesulfonic acid, Fluka, Switzerland; in 0.1 M Na2HPO4). After incubation for 20 min. at 37° C., 4 ml 4 mM Na2SO3 in 0.2 M NaH2PO4 was added and the absorbance at 416 nm was measured with UV/Vis spectrophotometer (Shimadzu UV-1601 with a CPS controller, Netherlands). The amount of ACE inhibition (ACEI) activity was calculated as a percentage of inhibition compared with the conversion rate of ACE in the absence of an inhibitor: ACEI (%) (((C1-C2)-(S1-S2))/(C1-C2))*100 (1) wherein • C1=Absorbance without ACE inhibitory component (=max. ACE activity) [AU]. • C2=Absorbance without ACE inhibitory component and without ACE (background) [AU]. • S1=Absorbance in the presence of ACE and the ACE inhibitory component [AU]. • S2=Absorbance in the presence of the ACE inhibitory component, but without ACE [AU].

Substance	IC50 [µM]
Leu-Pro [LP]	> 1000
Val-Leu-Pro [VLP]	120
Leu-Pro-Val-Pro (LPVP; printed: Leu-Pro-Val-Pro)	250
KVLPVPQ [Lys-Val-Leu-Pro-Val-Pro-Gln]	1000
KVLPVP [Lys-Val-Leu-Pro-Val-Pro]	5
Leu-Pro-Val [LPV]	> 1000
